Data on one molecule can be found in US12544375B2, “Small molecule therapeutic for parkinson's disease paired with a biomarker of therapeutic activity” (The Board of Trustees of the Leland Stanford Junior …, priority 2019, dated 2026).

SMILES strings stand for the structures.

The target of this experiment is T1, Miro2 (Homo sapiens, UniProt Q8IXI1).
T1 construct: Miro1 Reducer had no influence on Miro2 in either healthy or PD cells; endogenous in cells; host or cells: human skin fibroblasts (Healthy-1, PD-2)
T1 sequence (Q8IXI1 whole entry): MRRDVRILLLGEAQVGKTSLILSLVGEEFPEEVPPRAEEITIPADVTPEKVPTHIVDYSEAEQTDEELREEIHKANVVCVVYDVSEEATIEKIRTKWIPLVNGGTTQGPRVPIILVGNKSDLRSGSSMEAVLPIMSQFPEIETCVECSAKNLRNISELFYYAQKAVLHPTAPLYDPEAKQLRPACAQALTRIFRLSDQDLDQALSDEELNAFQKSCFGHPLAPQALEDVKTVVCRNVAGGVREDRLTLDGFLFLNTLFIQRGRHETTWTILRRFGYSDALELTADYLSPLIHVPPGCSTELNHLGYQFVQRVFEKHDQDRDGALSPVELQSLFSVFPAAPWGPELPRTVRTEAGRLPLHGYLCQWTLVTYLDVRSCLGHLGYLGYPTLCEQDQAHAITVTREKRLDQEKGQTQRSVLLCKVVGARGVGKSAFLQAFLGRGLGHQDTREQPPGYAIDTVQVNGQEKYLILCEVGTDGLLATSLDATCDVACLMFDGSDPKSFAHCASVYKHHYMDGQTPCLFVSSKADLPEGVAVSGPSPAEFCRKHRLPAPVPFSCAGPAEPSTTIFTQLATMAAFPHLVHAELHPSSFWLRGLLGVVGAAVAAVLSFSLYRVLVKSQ
The experiment is described as follows: Miro2 response to CCCP in fibroblasts, Western blotting. It counts as cell-based. The conditions noted are these: healthy or PD cells, CCCP 6 hrs. The procedure: FIG. 2A-FIG. 2F. Miro1 Reducer Eliminates the Miro1 Defect in PD Fibroblasts. (FIG. 2A) Chemical properties of Miro1 Reducer. (FIG. 2B) Wild-type flies (w^1118) were fed with DMSO alone (0 μM Miro1 Reducer) or Miro1 Reducer in DMSO at 250 μM for 7 days, and lysed and blotted as indicated. The band intensities are normalized to those of Tubulin from the same blots. n=4. (FIG. 2C-FIG. 2E) Fibroblasts were treated, lysed, and blotted as indicated. (FIG. 2C) Band intensities are normalized to those of GAPDH from the same blots and compared to “Healthy-1, no treatment” except otherwise indicated. n=4. (FIG. 2D) Band intensities are normalized to those of ATP5β from the same blots and expressed as a percentage of the mean of “0 μM Miro1 Reducer with CCCP”. Mean±S.E.M is shown. n=3. (FIG. 2E) Band intensities are normalized to those of GAPDH from the same blots and compared to “Healthy-1, no CCCP, no MG132” except otherwise indicated. n=4. (FIG. 2F) Healthy-1 and PD-2 fibroblasts were transfected as indicated, and immunostained with anti-Myc (Miro1, green) and stained with Dapi (blue). The Miro1 intensity is normalized to that of mito-dsRed from the same cell and quantified across 37-62 cells from 5 fields each transfection, 3 independent transfections. Scale bars: 50 μm. For (FIG. 2C-FIG. 2F), both CCCP and Miro1 Reducer were dissolved in DMSO. […]
Background: In western blotting, separated proteins are transferred to a membrane and probed.

Take `O=C(Nc1ccc(Nc2cc(-n3ccnc3)ncn2)cc1)Nc1cccc(F)c1` [Miro1 Reducer]: the “influence on Miro2” value is given as “no influence”.
